Laboratory results as given in the supplement of paper PMC11061612.

What was measured:
Assay in all cases: combination Emax (second highest fraction inhibited in the dose matrix, 72 h); higher = more inhibition; extreme values may be limits of the assay
[1] = system: 8305C (Thyroid Gland Carcinoma)
Procedure, shortened: (§1)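 Bliss excess equals the observed combination effect minus the expected value EA + EB − EA·EB, where EA and EB are the effects of each agent alone. Combination Emax is the second-highest inhibition within the matrix. Inhibition was scaled from CellTiter-Glo 2.0 luminescence, with 0 set by vehicle wells and 1 by blank wells, after 72 hours of two-drug dosing of cells plated in 1536-well plates.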

NCI-H28 (Mesothelioma) = system: NCI-H28 (Mesothelioma)
Procedure, shortened: as §1

[2] = system: RPMI-6666 (Non-Cancerous)
Procedure, shortened: as §1

Mewo (Melanoma) = system: Mewo (Melanoma)
Procedure, shortened: as §1

[3] = system: SK-OV-3 (Ovarian Carcinoma)
Procedure, shortened: as §1

[4] = system: RKO (Colorectal Carcinoma)
Procedure, shortened: as §1

[5] = system: HDLM-2 (Hodgkin's Lymphoma)
Procedure, shortened: as §1

[6] = system: LU-139 (Small Cell Lung Carcinoma)
Procedure, shortened: as §1

HMV-II (Melanoma) = system: HMV-II (Melanoma)
Procedure, shortened: as §1

[7] = system: HO-1-u-1 (Oral Cavity Carcinoma)
Procedure, shortened: as §1

[8] = system: SU-DHL-6 (B-Cell Non-Hodgkin's Lymphoma)
Procedure, shortened: as §1

[9] = system: K5 (Thyroid Gland Carcinoma)
Procedure, shortened: as §1

[10] = system: OC-314 (Ovarian Carcinoma)
Procedure, shortened: as §1

[11] = system: CAL-54 (Kidney Carcinoma)
Procedure, shortened: as §1

NCI-H2795 (Mesothelioma) = system: NCI-H2795 (Mesothelioma)
Procedure, shortened: as §1

NB14 (Neuroblastoma) = system: NB14 (Neuroblastoma)
Procedure, shortened: as §1

[12] = system: SW1271 (Small Cell Lung Carcinoma)
Procedure, shortened: as §1

SH-4 (Melanoma) = system: SH-4 (Melanoma)
Procedure, shortened: as §1

[13] = system: MDA-MB-468 (Breast Carcinoma)
Procedure, shortened: as §1

[14] = system: CAPAN-1 (Pancreatic Carcinoma)
Procedure, shortened: as §1

SMILES | combination Emax [1] | combination Emax (NCI-H28 (Mesothelioma)) | combination Emax [2] | combination Emax (Mewo (Melanoma)) | combination Emax [3] | combination Emax [4] | combination Emax [5] | combination Emax [6] | combination Emax (HMV-II (Melanoma)) | combination Emax [7] | combination Emax [8] | combination Emax [9] | combination Emax [10] | combination Emax [11] | combination Emax (NCI-H2795 (Mesothelioma)) | combination Emax (NB14 (Neuroblastoma)) | combination Emax [12] | combination Emax (SH-4 (Melanoma)) | combination Emax [13] | combination Emax [14]
C[C@@H]1COCCN1c1cc(C2([S@](C)(=N)=O)CC2)nc(-c2ccnc3[nH]ccc23)n1 [AZD6738] + C1CC(C1)(C(=O)[O-])C(=O)[O-].N.N.[Pt+2] [Carboplatin] (first compound max 10 µM, 7x7, partner max 10 µM) | 0.501 | 0.479 | 0.7 | 0.526 | 0.36 | 0.932 | 0.472 | 0.258 | 0.454 | 0.75 | 0.285 | 0.517 | 0.814 | 0.695 | 0.573 | 0.952 | 0.356 | 0.277 | 0.583 | 0.384
Cc1c2c(nn1C)CSCc1cc(n(C)n1)CSc1cc(c3ccccc3c1)OCCCc1c(C(=O)O)n(C)c3c-2c(Cl)ccc13 [AZD5991] + CS(=O)(=O)CCNCc1ccc(-c2ccc3ncnc(Nc4ccc(OCc5cccc(F)c5)c(Cl)c4)c3c2)o1 [Lapatinib] (first compound max 1 µM, 7x7, partner max 10 µM) | 0.346 | 0.337 | 0.555 | 0.481 | 0.347 | 0.455 | 0.961 | 0.201 | 0.64 | 0.713 | 1 | 0.237 | 0.506 | 0.529 | 0.877 | 0.936 | 0.424 | 0.197 | 0.851 | 0.261
CN(CCO)CC[C@H](CSc1ccccc1)Nc1ccc(S(=O)(=O)NC(=O)c2ccc(N3CCC([C@@H](O)c4ccccc4-c4ccc(Cl)cc4)CC3)cc2)cc1S(=O)(=O)C(F)(F)F [AZD4320] + CC(=O)O[C@H]1C(=O)[C@@]2(C)[C@H]([C@H](OC(=O)c3ccccc3)[C@]3(O)C[C@H](OC(=O)[C@H](O)[C@@H](NC(=O)c4ccccc4)c4ccccc4)C(C)=C1C3(C)C)[C@]1(OC(C)=O)CO[C@@H]1C[C@@H]2O [Paclitaxel] (first compound max 1 µM, 7x7, partner max 3 µM) | 0.846 | 0.823 | 1 | 0.78 | 0.978 | 1 | 1 | 0.964 | 0.853 | 0.965 | 1 | 0.94 | 1 | 0.773 | 0.837 | 1 | 0.927 | 0.531 | 0.881 | 0.874
CN(CCO)CC[C@H](CSc1ccccc1)Nc1ccc(S(=O)(=O)NC(=O)c2ccc(N3CCC([C@@H](O)c4ccccc4-c4ccc(Cl)cc4)CC3)cc2)cc1S(=O)(=O)C(F)(F)F [AZD4320] + CS(=O)(=O)CCNCc1ccc(-c2ccc3ncnc(Nc4ccc(OCc5cccc(F)c5)c(Cl)c4)c3c2)o1 [Lapatinib] (first compound max 1 µM, 7x7, partner max 10 µM) | 0.677 | 0.826 | 0.951 | 0.492 | 0.869 | 0.477 | 0.985 | 0.985 | 0.773 | 0.983 | 0.997 | 0.355 | 0.729 | 0.951 | 0.71 | 0.993 | 0.484 | 0.239 | 0.963 | 0.6
Cc1c2c(nn1C)CSCc1cc(n(C)n1)CSc1cc(c3ccccc3c1)OCCCc1c(C(=O)O)n(C)c3c-2c(Cl)ccc13 [AZD5991] + CC(=O)O[C@H]1C(=O)[C@@]2(C)[C@H]([C@H](OC(=O)c3ccccc3)[C@]3(O)C[C@H](OC(=O)[C@H](O)[C@@H](NC(=O)c4ccccc4)c4ccccc4)C(C)=C1C3(C)C)[C@]1(OC(C)=O)CO[C@@H]1C[C@@H]2O [Paclitaxel] (first compound max 1 µM, 7x7, partner max 3 µM) | 0.732 | 0.469 | 0.979 | 0.692 | 0.54 | 1 | 0.996 | 0.649 | 0.598 | 0.752 | 1 | 0.846 | 0.995 | 0.584 | 0.943 | 1 | 0.472 | 0.472 | 0.79 | 0.681
CN(CCO)CC[C@H](CSc1ccccc1)Nc1ccc(S(=O)(=O)NC(=O)c2ccc(N3CCC([C@@H](O)c4ccccc4-c4ccc(Cl)cc4)CC3)cc2)cc1S(=O)(=O)C(F)(F)F [AZD4320] + C[C@@H](Nc1cc(F)cc(F)c1)c1cc(C(=O)N(C)C)cc2c(=O)cc(N3CCOCC3)oc12 [AZD8186] (first compound max 1 µM, 7x7, partner max 3 µM) | 0.669 | 0.297 | 0.996 | 0.332 | 0.407 | 0.32 | 0.847 | 0.943 | 0.383 | 0.369 | 1 | 0.619 | 0.433 | 0.593 | 0.779 | 1 | 0.649 | 0.308 | 0.789 | 0.552
O=C(c1cc(Cc2n[nH]c(=O)c3ccccc23)ccc1F)N1CCN(C(=O)C2CC2)CC1 [Olaparib] + COc1nnc2ccc(N3CCC(c4ccc(OCCN5CCN(C)C(=O)[C@H]5C)cc4)CC3)nn12 [AZD5153] (first compound max 10 µM, 7x7, partner max 1 µM) | 0.495 | 0.422 | 0.633 | 0.417 | 0.516 | 0.672 | 0.356 | 0.896 | 0.474 | 0.454 | 0.917 | 0.611 | 0.798 | 0.737 | 0.651 | 0.574 | 0.573 | 0.514 | 0.503 | 0.418
O=C(c1cc(Cc2n[nH]c(=O)c3ccccc23)ccc1F)N1CCN(C(=O)C2CC2)CC1 [Olaparib] + CC1(C)CCC(CN2CCN(c3ccc(C(=O)NS(=O)(=O)c4ccc(NCC5CCOCC5)c([N+](=O)[O-])c4)c(Oc4cnc5[nH]ccc5c4)c3)CC2)=C(c2ccc(Cl)cc2)C1 [Venetoclax] (first compound max 10 µM, 7x7, partner max 1 µM) | 0.232 | 0.118 | 0.72 | 0.0337 | 0.139 | 0.191 | 0.322 | 0.655 | 0.129 | 0.117 | 0.719 | 0.156 | 0.188 | 0.177 | 0.284 | 0.465 | 0.201 | 0.148 | 0.314 | 0.225
C[C@@H](Nc1cc(F)cc(F)c1)c1cc(C(=O)N(C)C)cc2c(=O)cc(N3CCOCC3)oc12 [AZD8186] + C1CN(CCC1(C(=O)N[C@@H](CCO)C2=CC=C(C=C2)Cl)N)C3=NC=NC4=C3C=CN4 [AZD5363] (first compound max 10 µM, 7x7, partner max 10 µM) | 0.369 | 0.359 | 0.672 | 0.345 | 0.426 | 0.433 | 0.235 | 0.0726 | 0.229 | 0.752 | 1 | 0.466 | 0.562 | 0.683 | 0.409 | 0.213 | 0.289 | 0.214 | 0.571 | 0.204
C=CCn1c(=O)c2cnc(Nc3ccc(N4CCN(C)CC4)cc3)nc2n1-c1cccc(C(C)(C)O)n1 [AZD1775] + Nc1ccn([C@@H]2O[C@H](CO)[C@@H](O)C2(F)F)c(=O)n1 [Gemcitabine] (first compound max 1 µM, partner max 0.3 µM) | 0.574 | 0.685 | 0.917 | 0.583 | 0.583 | 0.882 | 0.763 | 0.795 | 0.632 | 0.693 | 0.958 | 0.568 | 0.972 | 0.787 | 0.785 | 1 | 0.617 | 0.577 | 0.733 | 0.697
O=C(c1cc(Cc2n[nH]c(=O)c3ccccc23)ccc1F)N1CCN(C(=O)C2CC2)CC1 [Olaparib] + CN(CC[C@H](CSC1=CC=CC=C1)NC2=C(C=C(C=C2)S(=O)(=O)NC(=O)C3=CC=C(C=C3)N4CCC(CC4)[C@H](C5=CC=CC=C5C6=CC=C(C=C6)Cl)O)S(=O)(=O)C(F)(F)F)CCO [AZD4320] (first compound max 10 µM, 7x7, partner max 1 µM) | 0.385 | 0.168 | 0.94 | 0.0936 | 0.219 | 0.11 | 0.878 | 0.958 | 0.0872 | 0.29 | 0.919 | 0.199 | 0.262 | 0.236 | 0.451 | 0.882 | 0.21 | 0.162 | 0.684 | 0.663
N#Cc1cnc(Nc2cc(NC[C@H]3CNCCO3)c(C(F)(F)F)cn2)cn1 [SRA737] + CCc1c2c(nc3ccc(O)cc13)-c1cc3c(c(=O)n1C2)COC(=O)[C@]3(O)CC [SN-38] (first compound max 10 µM, 7x7, partner max 0.3 µM) | 0.615 | 0.516 | 0.915 | 0.679 | 0.542 | 0.925 | 0.724 | 0.747 | 0.546 | 0.924 | 1 | 0.512 | 0.994 | 0.793 | 0.769 | 0.981 | 0.608 | 0.518 | 0.791 | 0.758
